Reference: patent US9504747B2, “Lipids and lipid compositions for the delivery of active agents” (Novartis AG, priority 2013, dated 2016)

What was measured:
[1] = pKa measurement of the cationic lipid (TNS fluorescence vs pH); format: physicochemical; settings: probe TNS (fluorescent probe), pKa of the cationic lipid of formula (I)
Summary of the method: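 Lipid (2 mM ethanol stock) mixed with TNS probe (0.3 mM stock) and diluted into twelve sodium phosphate/citric acid buffers of varying pH. TNS fluorescence read after background subtraction and normalized to the lowest-pH value. pKa taken as the pH at half-maximal normalized fluorescence on the smoothed curve, precise to about 0.1 units.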

[2] = Particle size of the lipid nanoparticle (dynamic light scattering, Malvern Zetasizer); format: physicochemical; settings: Z-average
Source text: The lipid nanoparticles have a size of about 1 to about 2,500 nm, about 1 to about 1,500 nm, about 1 to about 1,000 nm, in a sub-embodiment about 50 to about 600 nm, in a sub-embodiment about 50 to about 400 nm, in a sub-embodiment about 50 to about 250 nm, and in a sub-embodiment about 50 to about 150 nm. Unless indicated otherwise, all sizes referred to herein are the average sizes (diameters) of the fully formed nanoparticle, as measured by dynamic light scattering on a Malvern Zetasizer. The nanoparticle sample is diluted in phosphate buffered saline (PBS) so that the count rate is approximately 200-400 kcts. The data is presented as a weighted average of the intensity measure. The lipid nanoparticles (LNPs) were formed by mixing equal volumes of lipids dissolved in alcohol with siRNA dissolved in a citrate buffer by an impinging jet process. […] The siRNA to total lipid ratio is approximately 0.05 (wt/wt). Where a LNP formulation contains four lipid components, the molar ratios correspond to the type of lipid as it appears in the first four columns of the table, in the order that they appear. The ratio of the lipids ranges from 20 to 70 mole percent for the cationic lipid with a target of 40-60, the mole percent of helper lipid ranges from 20 to 70 with a target of 30 to 50, the mole percent of neutral lipid ranges from 0-30, the mole percent of PEG lipid has a range from 1 to 6 with a target of 2 to 5. The concentration of siRNA solution ranges from 0.7 to 1.0 mg/mL with a target of 0.8 to 0.9 mg/mL in a sodium citrate: sodium chloride buffer pH 4-6, with a target of 4.5-5.5. The LNPs are formed by mixing equal volumes of lipid solution in ethanol with siRNA dissolved in a citrate buffer by an impinging jet process through a mixing device with ID ranging from 0.25 to 2.0 mm at a flow rate from 10 to 640 mL/min. The mixed LNP solution is held at room temperature for 0-24 hrs prior to a dilution step. […] The final product is sterile filtered and stored at 4° C. Unless indicated otherwise, all particle size measurements referred to in Tables 4 and 5 are the Z-average particle size of the fully formed nanoparticle, as measured by dynamic light scattering on a Malvern Zetasizer. The nanoparticle sample was diluted in phosphate buffered saline (PBS) so that the count rate is approximately 200-400 kcts.

[3] = Polydispersity index (PDI) of the lipid nanoparticle (dynamic light scattering); format: physicochemical
Summary of the method: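 LNPs made by impinging-jet mixing of lipids in ethanol with siRNA in citrate buffer, pH 4-6, siRNA:total lipid ~0.05 wt/wt; sterile filtered, stored at 4° C. Samples diluted in PBS to ~200-400 kcts count rate before dynamic light scattering. PDI reported as intensity-weighted average of fully formed particles.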

PLK-1 mRNA = assay: LS411N Xenograft Assay with PLK1-424 siRNA lipid nanoparticles; format: in vivo, Female Nu/Nu mice; settings: percent knock down of PLK-1 mRNA in tumor vs control, 3 mg/kg IV daily for three days, 24 h post last injection
Experimental: Female Nu/Nu mice (6-8 weeks old) were implanted subcutaneously with 5×10^6 LS411N cells. Tumor growth was monitored by caliper measurement before treatment initiation. Mice bearing 150-250 mm^3 subcutaneous tumors were randomized and enrolled in the study. The stock siRNA formulations were diluted to […] with PBS for dosing. Animals enrolled in different groups received a single daily bolus IV injection of 3 mg/kg siRNA for three days. Tumors were harvested 24 hours post last injection to assess target gene regulation by qRT-PCR.
Lipid nanoparticles comprising lipid compounds of formula (I) and the PLK1-424 siRNA duplex sequence listed above were tested in the LS411N Xenograft Assay. The results of this assay are given in Table 5 below as a percent knock down of PLK-1 mRNA as compared to the control when administered as a single daily dose for three days at a dose of 3 mg/kg.

[4] = Table 4, FVII siRNA LNP, Chol/DSPC/stealth lipid S010, molar ratio 45/44/9/2
[5] = Table 5, PLK1-424 siRNA LNP, Chol/DSPC/stealth lipid S010, 45/44/9/2
[6] = Table 4, FVII siRNA LNP, Chol/DSPC/stealth lipid S010, 45/44/9/2
[7] = Table 5, PLK1-424 siRNA LNP, stealth lipid S010, 45/44/9/2
[8] = Table 4, FVII siRNA LNP, Chol/DSPC/stealth lipid PEG-DMG, molar ratio 45/44/9/2
[9] = Table 5, PLK1-424 siRNA LNP, Chol/DSPC/stealth lipid PEG-DSG, 45/44/9/2
[10] = Table 4, FVII siRNA LNP, Chol/DSPC/stealth lipid PEG-DMG, 45/44/9/2
[11] = Table 5, PLK1-424 siRNA LNP, stealth lipid PEG-DSG, 45/44/9/2

SMILES	pKa ([1]; Table 4)	pKa ([1]; Table 5)	Size (nm) [2, 4] [nm]	Size (nm) [2, 5] [nm]	PDI [3, 6]	PDI [3, 7]	LS411 KD 3 × 3 mg/Kg (PLK-1 mRNA; stealth lipid S010) [%]	Size (nm) [2, 8] [nm]	Size (nm) [2, 9] [nm]	PDI [3, 10]	PDI [3, 11]	LS411 KD 3 × 3 mg/Kg (PLK-1 mRNA; stealth lipid PEG-DSG) [%]
CCCCC/C=C\C/C=C\CCCCCCCC(=O)OCCCOc1cc(CN(C)C)cc(OCCCOC(=O)CCCCCCC/C=C\C/C=C\CCCCC)c1 [Example 39]	5.91	5.91	122.9	114.3	0.044	0.039	55					
CCCCCCCCCC(=O)OCCCCCCCCOc1cc(CN(C)C)cc(OCCCCCCCCOC(=O)CCCCCCCCC)c1 [Example 52]	5.96	5.96	145.4	132.2	0.052	0.06	50	109.4	132.2	0.1	0.06	69
CCCCCCCC(=O)OCC(CCOc1cc(CN(C)C)cc(OCCC(COC(=O)CCCCCCC)OC(=O)CCCCCCC)c1)OC(=O)CCCCCCC (stereo not shown) [Example 91]	6.01	6.01			0.053	0.032	45			0.06		
CCCCC/C=C\C/C=C\CCCCCCCC(=O)OCCCCOc1cc(CN(C)C)cc(OCCCCOC(=O)CCCCCCC/C=C\CCCCCCCC)c1 [Example 63]	5.92	5.9			0.057						0.047	66
CCCCC/C=C\C/C=C\CCCCCCCC(=O)OCCCCOc1cc(CN(C)C)cc(OCCCCOC(=O)CCCCCCC/C=C\C/C=C\CCCCC)c1 [Example 38]	5.93	5.93	120	116.8	0.04	0.036	60	108.0	116.8	0.02	0.036	58
CCCCCCCC(=O)OCCCCCCCCOc1cc(CN(C)C)cc(OCCCCCCCCOC(=O)CCCCCCC)c1 [Example 42]	5.93	5.93	120	181.1	0.084	0.06	50					
CCCCCCCCCCOC(=O)CCCCCCCOc1cc(CN(C)C)cc(OCCCCCCCC(=O)OCCCCCCCCCC)c1 [Example 57]	5.94	5.94			0.059	0.038	60			0.03		
CCCCCCCC(=O)OCCCCCCCCCCOc1cc(CN(C)C)cc(OCCCCCCCCCCOC(=O)CCCCCCC)c1 [Example 43]	5.85	5.85	121.9	150.7	0.066	0.046	40	157.8		0.08		
